Tested on: Karpas cells
Test: Detection of surface protein combinations of the protein network on untreated (V1) and actinonin-treated (V2) Karpas cells
Type: cell-based
Conditions: for V2 no. of cells In 1/1OOO / V2 No. of cells In 1/1000: actinonin-treated Karpas cells (V2)
Source text: Principally, detecting of the surface protein combinations may comprise procedural steps of an automated method for determining molecular classes, molecular groups or molecular parts in a solid or liquid object according to DE 197 09 348 C. In these steps, surface proteins may be examined and measured in one and the same object, i.e. in a sample of immune cells and/or tumor cells for example, by sequentially applying reagent solutions Yn (n=1,2,3, . . . N) by means of an automated apparatus, said procedural steps being: I. taking a first reagent solution Y1 from a vessel containing the reagent solution, II. applying said reagent solution Y1 to the object which is on an object slide, III. allowing the reagent solution to react for an automatically set period of time, IV. recording at least one individual labeling pattern of the object previously labeled with said first reagent solution Y1, V. repeating steps I-IV by applying said first reagent solution Y1 or a second reagent solution Y2 or a mixture of said first and second reagent solutions, and VI. repeating steps I to V with further reagent solutions Yn (n=2,3, . . . N) or a mixture thereof and whereby the labeling distribution patterns obtained in each cycle of the method are turned into a complex molecular combination pattern of the object to be examined by computer-aided image overlay. From this combination pattern, information may be gained on the presence of the above mentioned proteins, thus also allowing detection of the surface protein combinations, if the reagent solutions used contain labeled substances directed against the proteins in question. In numerous examinations, it was possible to identify the 30 cell surface proteins already listed above which belong to a specific protein network controlling the early polarization stages of tumor cells and immune cells. In a further examination, surface protein combinations of this protein network of Karpas cells were detected, both in untreated form and after treatment with the aminopeptidase inhibitor actinonin. For this purpose, two groups V1 and V2 of Karpas cells were formed, with the cells of group Vl remaining untreated, while the cells of group V2 were treated with actinonin. Table 2 lists those surface protein combinations which are present both in the actinonin-treated cells and in the untreated cells. However, this table and the further tables 3 and 4 only give examples of 18 of the 30 proteins, with the detected proteins being designated 1 and the non-detected proteins being designated 0. The proteins are continuously numbered 1 to 18, with the nomenclature being notable from table 1. [table] The cell numbers stated in tables 2 to 4 refer to each 1,000 cells examined in groups V1 and V2. Table 3 lists the surface protein combinations which only occur in the untreated Karpas cells and are never found in the actinonin-treated Karpas cells. The number of protein combinations listed in this table 3 amounts to 131. Finally, table 4 exclusively lists those surface protein combinations which occur exclusively in the actinonin-treated Karpas cells. It may be gathered from tables 2 to 4 that, if one examines merely 18 proteins of the 30 proteins, a total of 394 different surface protein combinations will occur, with a total of 334 different combinations occurring in the untreated cells and a total of 263 different combinations being detected in the treated cells.

CCCCC[C@H](CC(=O)NO)C(=O)N[C@H](C(=O)N1CCC[C@H]1CO)C(C)C [actinonin]
specific blocking of cell polarization: effect of the modification of surface protein combinations on cell polarization (actinonin-treated Karpas cells)
60: number of surface protein combinations occurring exclusively in the actinonin-treated Karpas cells (Table 4, 18 proteins)
0.1 1/1OOO: V2 no. of cells In 1/1OOO (protein code No. 149, proteins 1-18 binary 000100010111001000) | V2 no. of cells In 1/1OOO (protein code No. 150, proteins 1-18 binary 000000010101011000) | V2 no. of cells In 1/1OOO (protein code No. 162, proteins 1-18 binary 011100011101011000) | V2 no. of cells In 1/1OOO (protein code No. 163, proteins 1-18 binary 011000011100011100) | V2 no. of cells In 1/1OOO (protein code No. 164, proteins 1-18 binary 010000001101001000) | V2 no. of cells In 1/1OOO (protein code No. 165, proteins 1-18 binary 001000010001001100) | V2 no. of cells In 1/1OOO (protein code No. 174, proteins 1-18 binary 111100001100011100) | V2 no. of cells In 1/1OOO (protein code No. 175, proteins 1-18 binary 101100011101011000) | V2 no. of cells In 1/1OOO (protein code No. 176, proteins 1-18 binary 101000010011001000) | V2 no. of cells In 1/1OOO (protein code No. 177, proteins 1-18 binary 100000000000001000) | V2 no. of cells In 1/1OOO (protein code No. 178, proteins 1-18 binary 000100010101011000) | V2 no. of cells In 1/1OOO (protein code No. 179, proteins 1-18 binary 000000001101001000) | V2 no. of cells In 1/1OOO (protein code No. 187, proteins 1-18 binary 111000001100001000) | V2 no. of cells In 1/1OOO (protein code No. 188, proteins 1-18 binary 101000110111011100) | V2 no. of cells In 1/1OOO (protein code No. 189, proteins 1-18 binary 011100011100001100) | V2 no. of cells In 1/1OOO (protein code No. 190, proteins 1-18 binary 011100011001001000) | V2 no. of cells In 1/1OOO (protein code No. 191, proteins 1-18 binary 010000001111001000) | V2 no. of cells In 1/1OOO (protein code No. 192, proteins 1-18 binary 001100011111011100) | V2 no. of cells In 1/1OOO (protein code No. 193, proteins 1-18 binary 001100010011000000) | V2 no. of cells In 1/1OOO (protein code No. 194, proteins 1-18 binary 001000110011011000) | V2 no. of cells In 1/1OOO (protein code No. 195, proteins 1-18 binary 001000010011001100) | V2 no. of cells In 1/1OOO (protein code No. 198 (first line so numbered, r203), proteins 1-18 binary 001000010010000000)
0.5 1/1OOO: V2 no. of cells In 1/1OOO (protein code No. 158, proteins 1-18 binary 100100000000001000) | V2 no. of cells In 1/1OOO (protein code No. 159, proteins 1-18 binary 010000011001000000) | V2 no. of cells In 1/1OOO (protein code No. 160, proteins 1-18 binary 001000010101011100) | V2 no. of cells In 1/1OOO (protein code No. 161, proteins 1-18 binary 000000011001001000)
203: number of surface protein combinations present both in actinonin-treated and untreated cells (Table 2, 18 proteins)
263: number of different surface protein combinations detected in the treated cells (18 of the 30 proteins examined, untreated cells: 334, overall 394)
0.0 1/1000: V2 No. of cells In 1/1000 (surface protein combination No. 3, binary code proteins 1-18: 011100011101011100, untreated V1: 0.8) | V2 No. of cells In 1/1000 (surface protein combination No. 4, binary code proteins 1-18: 101000010011011000, untreated V1: 0.7) | V2 No. of cells In 1/1000 (surface protein combination No. 5, binary code proteins 1-18: 001000110101011000, untreated V1: 0.7) | V2 No. of cells In 1/1000 (surface protein combination No. 6, binary code proteins 1-18: 000100000000001100, untreated V1: 0.7) | V2 No. of cells In 1/1000 (surface protein combination No. 7, binary code proteins 1-18: 101000011111011000, untreated V1: 0.6) | V2 No. of cells In 1/1000 (surface protein combination No. 8, binary code proteins 1-18: 001000000010000000, untreated V1: 0.6) | V2 No. of cells In 1/1000 (surface protein combination No. 9, binary code proteins 1-18: 111100011101011100, untreated V1: 0.5) | V2 No. of cells In 1/1000 (surface protein combination No. 10, binary code proteins 1-18: 001100011101000000, untreated V1: 0.5) | V2 No. of cells In 1/1000 (surface protein combination No. 11, binary code proteins 1-18: 000000011111001000, untreated V1: 0.5) | V2 No. of cells In 1/1000 (surface protein combination No. 12, binary code proteins 1-18: 111000011101011100, untreated V1: 0.4) | V2 No. of cells In 1/1000 (surface protein combination No. 13, binary code proteins 1-18: 110000001100001000, untreated V1: 0.4) | V2 No. of cells In 1/1000 (surface protein combination No. 14, binary code proteins 1-18: 101100011111001000, untreated V1: 0.4) | V2 No. of cells In 1/1000 (surface protein combination No. 15, binary code proteins 1-18: 101000010001011000, untreated V1: 0.4) | V2 No. of cells In 1/1000 (surface protein combination No. 16, binary code proteins 1-18: 100100000100011000, untreated V1: 0.4) | V2 No. of cells In 1/1000 (surface protein combination No. 17, binary code proteins 1-18: 100100000001001100, untreated V1: 0.4) | V2 No. of cells In 1/1000 (surface protein combination No. 18, binary code proteins 1-18: 100000000000011000, untreated V1: 0.4)
0.2 1/1OOO: V2 no. of cells In 1/1OOO (protein code No. 151, proteins 1-18 binary 011000001101001000) | V2 no. of cells In 1/1OOO (protein code No. 152, proteins 1-18 binary 010000011101001000) | V2 no. of cells In 1/1OOO (protein code No. 153, proteins 1-18 binary 001100010111011100) | V2 no. of cells In 1/1OOO (protein code No. 154, proteins 1-18 binary 000000001000001000) | V2 no. of cells In 1/1OOO (protein code No. 162 (second line so numbered, r189), proteins 1-18 binary 010000001100011000) | V2 no. of cells In 1/1OOO (protein code No. 166, proteins 1-18 binary 111100111111011100) | V2 no. of cells In 1/1OOO (protein code No. 167, proteins 1-18 binary 111100001100001100) | V2 no. of cells In 1/1OOO (protein code No. 168, proteins 1-18 binary 011000011100000000) | V2 no. of cells In 1/1OOO (protein code No. 169, proteins 1-18 binary 001100010000001000) | V2 no. of cells In 1/1OOO (protein code No. 170, proteins 1-18 binary 001100000001001000) | V2 no. of cells In 1/1OOO (protein code No. 171, proteins 1-18 binary 001000011000000000) | V2 no. of cells In 1/1OOO (protein code No. 172, proteins 1-18 binary 000000010001011000) | V2 no. of cells In 1/1OOO (protein code No. 180, proteins 1-18 binary 111100011111011000) | V2 no. of cells In 1/1OOO (protein code No. 181, proteins 1-18 binary 101100110101011000) | V2 no. of cells In 1/1OOO (protein code No. 183, proteins 1-18 binary 001100010100001000) | V2 no. of cells In 1/1OOO (protein code No. 184, proteins 1-18 binary 001000011011011000) | V2 no. of cells In 1/1OOO (protein code No. 185, proteins 1-18 binary 001000011011000000) | V2 no. of cells In 1/1OOO (protein code No. 186, proteins 1-18 binary 000000011011000000)
0.3 1/1OOO: V2 no. of cells In 1/1OOO (protein code No. 155, proteins 1-18 binary 111000011100011100) | V2 no. of cells In 1/1OOO (protein code No. 156, proteins 1-18 binary 010000001101000000) | V2 no. of cells In 1/1OOO (protein code No. 157, proteins 1-18 binary 001000010001000100) | V2 no. of cells In 1/1OOO (protein code No. 173, proteins 1-18 binary 011100011100011100)
131: number of surface protein combinations occurring only in untreated Karpas cells, never found in actinonin-treated cells (Table 3, 18 proteins)
